Experimental data reported in the supplement of paper PMC10331698.
± gives the standard deviation of the averaged measurements.

Legend:
Assay in all cases: level (log10 ratio to DMSO vehicle control); higher = higher biomarker level / cell amount than vehicle control
[1] = compound: C=C(C)C(=O)OCCC(F)(F)C(F)(F)C(F)(F)C(F)(F)C(F)(F)C(F)(F)F [6:2 Fluorotelomer methacrylate]; details: in DMSO
Experimental: (§1)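 BioMAP Diversity Plus panel of 12 human primary cell co-culture systems (3C, 4H, LPS, SAg, BT, BF4T, BE3C, CASM3C, HDF3CGF, KF3CT, MyoF, Mphg). Compounds were added 1 h before stimulation and left for 24 h (MyoF 48 h; BT 72 h for soluble read-outs or 6 d for IgG). Biomarkers were read by ELISA, cytotoxicity by SRB, PBMC viability and proliferation by Alamar Blue. Each well value was divided by the mean of 8 DMSO control wells on the same plate and log10 transformed; duplicate blinded samples were tested at 4 concentrations.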

[2] = compound: C=CC(=O)OCC(F)(F)C(F)(F)C(F)(F)COC(=O)C=C [1H,1H,5H,5H-Perfluoro-1,5-pentanediol diacrylate]; details: 6700 nM; in DMSO
Experimental: as §1

[3] = compound: COC(=O)C(F)(F)C(F)(F)OC(F)(C(F)(F)F)C(F)(F)OC(F)=C(F)F [Methyl perfluoro(3-(1-ethenyloxypropan-2-yloxy)propanoate)]; details: in DMSO
Experimental: as §1

[4] = compound: FC(F)(F)C(F)(F)C(F)(F)C(F)(F)C(F)(F)C(F)(F)C(F)(F)I [1-Iodopentadecafluoroheptane]; details: in DMSO
Experimental: as §1

[5] = compound: FC(F)(F)C(F)(F)C(F)(F)C(F)(F)C(F)(F)C(F)(F)CC1CO1 [3-(Perfluorohexyl)-1,2-epoxypropane]; details: in DMSO
Experimental: as §1

[6] = compound: FC(F)(F)C(F)(F)C(F)(F)CC1CO1 [1H,1H-Heptafluorobutyl epoxide]; details: in DMSO
Experimental: as §1

Heptafluorobutyl iodide = compound: FC(F)(F)C(F)(F)C(F)(F)CI [Heptafluorobutyl iodide]; details: in DMSO
Experimental: as §1

[7] = compound: FC(F)(F)C(F)(F)CNCC(F)(F)C(F)(F)F [Bis(1H,1H-perfluoropropyl)amine]; details: in DMSO
Experimental: as §1

Octafluoroadipamide = compound: NC(=O)C(F)(F)C(F)(F)C(F)(F)C(F)(F)C(N)=O [Octafluoroadipamide]; details: in DMSO
Experimental: as §1

Nonafluoropentanamide = compound: NC(=O)C(F)(F)C(F)(F)C(F)(F)C(F)(F)F [Nonafluoropentanamide]; details: in DMSO
Experimental: as §1

[8] = compound: NC(=O)C(F)(F)C(F)(F)C(F)(F)C(F)F; details: in DMSO
Experimental: as §1

[9] = compound: NS(=O)(=O)C(F)(F)C(F)(F)C(F)(F)C(F)(F)C(F)(F)C(F)(F)F [Perfluorohexanesulfonamide]; details: in DMSO
Experimental: as §1

[10] = compound: O=C(O)C(F)(F)C(F)(F)C(F)(F)C(F)(F)C(F)(F)C(F)(F)C(F)(F)C(F)(F)C(F)(F)C(F)F [11-H-Perfluoroundecanoic acid]; details: in DMSO
Experimental: as §1

[11] = compound: O=C(O)C=CC(F)(C(F)(F)F)C(F)(F)F [3-(Perfluoroisopropyl)-2-propenoic acid]; details: in DMSO
Experimental: as §1

[12] = compound: O=S(=O)(Cl)C(F)(F)C(F)(F)C(F)(F)C(F)(F)C(F)(F)C(F)(F)C(F)(F)C(F)(F)F [Perfluoro-1-octanesulfonyl chloride]; details: in DMSO
Experimental: as §1

[13] = compound: O=S(=O)(F)C(F)(F)C(F)(F)C(F)(F)C(F)(F)C(F)(F)C(F)(F)C(F)(F)C(F)(F)F [Perfluorooctanesulfonyl fluoride]; details: in DMSO
Experimental: as §1

[14] = compound: O=S(=O)(O)C(F)(F)C(F)(F)C(F)(F)C(F)(F)C(F)(F)C(F)(F)C(F)(F)C(F)(F)C(F)(F)C(F)(F)F [Sodium perfluorodecanesulfonate]; details: in DMSO
Experimental: as §1

[15] = compound: O=S(=O)(O)CCC(F)(F)C(F)(F)C(F)(F)C(F)(F)C(F)(F)C(F)(F)F [6:2 Fluorotelomer sulfonic acid]; details: in DMSO
Experimental: as §1

Hexafluoroamylene glycol = compound: OCC(F)(F)C(F)(F)C(F)(F)CO [Hexafluoroamylene glycol]; details: in DMSO
Experimental: as §1

In the case of HDF3CGF:CD54/ICAM-1, the “level (log10)” value ([1]; 6700 nM) is reported as -0.011 ± 0.0042, the “level (log10)” value ([1]; 20000 nM) is reported as 0.0035 ± 0.012 and the “level (log10)” value ([1]; 60000 nM) is reported as 0.005 ± 0.0014. For the same test system, the “level (log10)” value [2] was -0.9415 ± 0.0078, the “level (log10)” value ([3]; 6700 nM) was -0.0155 ± 0.0092 and the “level (log10)” value ([3]; 20000 nM) was -0.029 ± 0.025. The “level (log10)” value ([4]; 6700 nM) was -0.0025 ± 0.0078, the “level (log10)” value ([4]; 20000 nM) was -0.0075 ± 0.0078 and the “level (log10)” value ([5]; 6700 nM) was -0.01 ± 0.018. The “level (log10)” value ([5]; 20000 nM) was -0.0095 ± 0.0092, the “level (log10)” value ([5]; 60000 nM) was -0.021 ± 0.034 and the “level (log10)” value ([6]; 6700 nM) was -0.0045 ± 0.022. The “level (log10)” value ([6]; 20000 nM) was -0.0115 ± 0.04, the “level (log10)” value ([6]; 60000 nM) was -0.0215 ± 0.06 and the “level (log10)” value (Heptafluorobutyl iodide; 6700 nM) was -0.004 ± 0.0028. The “level (log10)” value (Heptafluorobutyl iodide; 20000 nM) was 0.0005 ± 0.005, the “level (log10)” value (Heptafluorobutyl iodide; 60000 nM) was 0.002 ± 0.0028 and the “level (log10)” value ([7]; 6700 nM) was 0.026 ± 0.018. The “level (log10)” value ([7]; 20000 nM) was 0.033 ± 0.0085, the “level (log10)” value ([7]; 60000 nM) was 0.0405 ± 0.018 and the “level (log10)” value (Octafluoroadipamide; 6700 nM) was 0.011 ± 0.027. The “level (log10)” value (Octafluoroadipamide; 20000 nM) was 0.043 ± 0.0099, the “level (log10)” value (Octafluoroadipamide; 60000 nM) was 0.055 ± 0.073 and the “level (log10)” value (Nonafluoropentanamide; 6700 nM) was -0.0065 ± 0.011. The “level (log10)” value (Nonafluoropentanamide; 20000 nM) was -0.01 ± 0.0085, the “level (log10)” value (Nonafluoropentanamide; 60000 nM) was 0 ± 0.0042 and the “level (log10)” value ([8]; 6700 nM) was -0.0045 ± 0.0064. The “level (log10)” value ([8]; 20000 nM) was 0.0045 ± 0.0035, the “level (log10)” value ([8]; 60000 nM) was 0.001 ± 0.0071 and the “level (log10)” value ([9]; 6700 nM) was -0.005 ± 0.0028. For the same test system, the “level (log10)” value ([9]; 20000 nM) was -0.0155 ± 0.012, the “level (log10)” value ([9]; 60000 nM) was -0.0225 ± 0.005 and the “level (log10)” value ([10]; 6700 nM) was -0.058 ± 0.0085. The “level (log10)” value ([10]; 20000 nM) was -0.0635 ± 0.0035, the “level (log10)” value ([11]; 6700 nM) was -0.0105 ± 0.005 and the “level (log10)” value ([11]; 20000 nM) was -0.0055 ± 0.015. For the same test system, the “level (log10)” value ([11]; 60000 nM) was -0.024 ± 0.016, the “level (log10)” value ([12]; 6700 nM) was 0.039 ± 0.023 and the “level (log10)” value ([12]; 20000 nM) was 0.034 ± 0.051. The “level (log10)” value ([12]; 60000 nM) was 0.0005 ± 0.03, the “level (log10)” value ([13]; 6700 nM) was -0.013 ± 0.018 and the “level (log10)” value ([13]; 20000 nM) was -0.011 ± 0.0014. For the same test system, the “level (log10)” value ([13]; 60000 nM) was -0.006 ± 0.013, the “level (log10)” value ([14]; 1500 nM) was -0.0145 ± 0.021 and the “level (log10)” value ([14]; 4400 nM) was -0.031 ± 0.016. For the same test system, the “level (log10)” value ([14]; 13000 nM) was -0.037 ± 0.016, the “level (log10)” value ([14]; 40000 nM) was -0.063 ± 0.0057 and the “level (log10)” value ([15]; 6700 nM) was -0.0085 ± 0.011. For the same test system, the “level (log10)” value ([15]; 20000 nM) was -0.007 ± 0.011, the “level (log10)” value ([15]; 60000 nM) was -0.029 ± 0.014 and the “level (log10)” value (Hexafluoroamylene glycol; 6700 nM) was -0.0065 ± 0.016. For the same test system, the “level (log10)” value (Hexafluoroamylene glycol; 20000 nM) was 0.0015 ± 0.012 and the “level (log10)” value (Hexafluoroamylene glycol; 60000 nM) was 0.009.
For HDF3CGF:CD106/VCAM-1, the “level (log10)” value ([1]; 6700 nM) was -0.0005 ± 0.018, the “level (log10)” value ([1]; 20000 nM) was -0.0085 ± 0.0064 and the “level (log10)” value ([1]; 60000 nM) was -0.0395 ± 0.03. For the same test system, the “level (log10)” value [2] was -0.512 ± 0.033, the “level (log10)” value ([3]; 6700 nM) was -0.133 ± 0.0057 and the “level (log10)” value ([3]; 20000 nM) was -0.313 ± 0.0099. For the same test system, the “level (log10)” value ([4]; 6700 nM) was -0.0165 ± 0.021, the “level (log10)” value ([4]; 20000 nM) was -0.046 ± 0.041 and the “level (log10)” value ([5]; 6700 nM) was -0.001 ± 0.025. The “level (log10)” value ([5]; 20000 nM) was -0.01 ± 0.0057, the “level (log10)” value ([5]; 60000 nM) was -0.057 ± 0.016 and the “level (log10)” value ([6]; 6700 nM) was 0.013 ± 0.0099. The “level (log10)” value ([6]; 20000 nM) was -0.017 ± 0.0014, the “level (log10)” value ([6]; 60000 nM) was -0.04 ± 0.021 and the “level (log10)” value (Heptafluorobutyl iodide; 6700 nM) was 0.0715 ± 0.03. For the same test system, the “level (log10)” value (Heptafluorobutyl iodide; 20000 nM) was 0.0695 ± 0.057, the “level (log10)” value (Heptafluorobutyl iodide; 60000 nM) was 0.0585 ± 0.076 and the “level (log10)” value ([7]; 6700 nM) was 0.017 ± 0.017. For the same test system, the “level (log10)” value ([7]; 20000 nM) was 0.0115 ± 0.013, the “level (log10)” value ([7]; 60000 nM) was 0.009 ± 0.0085 and the “level (log10)” value (Octafluoroadipamide; 6700 nM) was -0.0005 ± 0.012. For the same test system, the “level (log10)” value (Octafluoroadipamide; 20000 nM) was -0.0165 ± 0.035, the “level (log10)” value (Octafluoroadipamide; 60000 nM) was 0.01 ± 0.0099 and the “level (log10)” value (Nonafluoropentanamide; 6700 nM) was 0.008 ± 0.028. The “level (log10)” value (Nonafluoropentanamide; 20000 nM) was 0.0185 ± 0.03, the “level (log10)” value (Nonafluoropentanamide; 60000 nM) was -0.0085 ± 0.037 and the “level (log10)” value ([8]; 6700 nM) was -0.0285 ± 0.019. The “level (log10)” value ([8]; 20000 nM) was -0.014 ± 0.024, the “level (log10)” value ([8]; 60000 nM) was -0.04 ± 0.078 and the “level (log10)” value ([9]; 6700 nM) was -0.0505 ± 0.059. The “level (log10)” value ([9]; 20000 nM) was -0.034 ± 0.042, the “level (log10)” value ([9]; 60000 nM) was -0.205 ± 0.0092 and the “level (log10)” value ([10]; 6700 nM) was -0.085 ± 0.051. For the same test system, the “level (log10)” value ([10]; 20000 nM) was -0.234 ± 0.0064, the “level (log10)” value ([11]; 6700 nM) was -0.0265 ± 0.015 and the “level (log10)” value ([11]; 20000 nM) was -0.019 ± 0.02. The “level (log10)” value ([11]; 60000 nM) was -0.025 ± 0.035, the “level (log10)” value ([12]; 6700 nM) was -0.051 ± 0.04 and the “level (log10)” value ([12]; 20000 nM) was -0.0065 ± 0.0064. The “level (log10)” value ([12]; 60000 nM) was -0.042 ± 0.0085, the “level (log10)” value ([13]; 6700 nM) was -0.011 ± 0.02 and the “level (log10)” value ([13]; 20000 nM) was -0.071 ± 0.05. For the same test system, the “level (log10)” value ([13]; 60000 nM) was -0.083 ± 0.048, the “level (log10)” value ([14]; 1500 nM) was -0.104 ± 0.06 and the “level (log10)” value ([14]; 4400 nM) was -0.164 ± 0.042. The “level (log10)” value ([14]; 13000 nM) was -0.0895 ± 0.049, the “level (log10)” value ([14]; 40000 nM) was -0.0215 ± 0.0092 and the “level (log10)” value ([15]; 6700 nM) was 0.034 ± 0.11. For the same test system, the “level (log10)” value ([15]; 20000 nM) was 0.034 ± 0.093, the “level (log10)” value ([15]; 60000 nM) was 0.0135 ± 0.064 and the “level (log10)” value (Hexafluoroamylene glycol; 6700 nM) was 0.042 ± 0.083. For the same test system, the “level (log10)” value (Hexafluoroamylene glycol; 20000 nM) was 0.0495 ± 0.08 and the “level (log10)” value (Hexafluoroamylene glycol; 60000 nM) was 0.041 ± 0.055.
